Test results reported in doi:10.1101/685669v2 (biorxiv, 2020).

Experiments:
Experiment in all cases: fluorogenic peptidase assay
Assay type in all cases: biochemical
[1] = target: T1, ecClpP (Escherichia coli, UniProt P0A6G7)
[2] = target: T2, ecClpXP (Escherichia coli, UniProt P0A6G7+P0A6H1); conditions: substrate Suc-LY-AMC; competitive
[3] = target: T1, ecClpP; remark: listed apart in the source
[4] = target: T2, ecClpXP; conditions: 0.1 mM Suc-LY-AMC; competitive
[5] = target: T3, bsClpYQ (Bacillus subtilis, UniProt P39070+P39778); conditions: substrate Cbz-GGL-AMC, ATP present; competitive
T3 sequence (P39070 2-181): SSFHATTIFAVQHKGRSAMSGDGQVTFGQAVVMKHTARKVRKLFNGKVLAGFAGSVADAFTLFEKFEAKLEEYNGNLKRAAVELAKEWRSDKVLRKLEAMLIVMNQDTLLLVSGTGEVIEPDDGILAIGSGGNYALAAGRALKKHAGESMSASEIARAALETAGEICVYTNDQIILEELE
T3 sequence (P39778 1-467): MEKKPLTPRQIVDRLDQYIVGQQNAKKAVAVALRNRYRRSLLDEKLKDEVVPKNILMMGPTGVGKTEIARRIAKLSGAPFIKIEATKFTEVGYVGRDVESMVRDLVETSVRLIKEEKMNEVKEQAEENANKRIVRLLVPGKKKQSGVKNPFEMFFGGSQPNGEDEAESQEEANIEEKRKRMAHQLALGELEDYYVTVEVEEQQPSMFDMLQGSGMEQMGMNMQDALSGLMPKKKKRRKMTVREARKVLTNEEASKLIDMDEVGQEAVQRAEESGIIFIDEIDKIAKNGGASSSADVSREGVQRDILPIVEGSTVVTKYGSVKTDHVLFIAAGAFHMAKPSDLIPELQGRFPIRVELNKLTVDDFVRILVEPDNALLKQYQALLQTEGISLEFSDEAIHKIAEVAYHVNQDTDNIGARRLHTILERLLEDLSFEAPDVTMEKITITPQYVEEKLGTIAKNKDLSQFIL

T2 sequence (P0A6G7 15-207): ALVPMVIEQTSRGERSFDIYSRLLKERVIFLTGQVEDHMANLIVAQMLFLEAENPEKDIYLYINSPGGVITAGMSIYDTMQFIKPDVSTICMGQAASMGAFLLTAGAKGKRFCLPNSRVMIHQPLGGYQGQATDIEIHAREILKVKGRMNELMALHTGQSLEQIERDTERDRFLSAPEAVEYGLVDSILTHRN
T2 sequence (P0A6H1 2-424): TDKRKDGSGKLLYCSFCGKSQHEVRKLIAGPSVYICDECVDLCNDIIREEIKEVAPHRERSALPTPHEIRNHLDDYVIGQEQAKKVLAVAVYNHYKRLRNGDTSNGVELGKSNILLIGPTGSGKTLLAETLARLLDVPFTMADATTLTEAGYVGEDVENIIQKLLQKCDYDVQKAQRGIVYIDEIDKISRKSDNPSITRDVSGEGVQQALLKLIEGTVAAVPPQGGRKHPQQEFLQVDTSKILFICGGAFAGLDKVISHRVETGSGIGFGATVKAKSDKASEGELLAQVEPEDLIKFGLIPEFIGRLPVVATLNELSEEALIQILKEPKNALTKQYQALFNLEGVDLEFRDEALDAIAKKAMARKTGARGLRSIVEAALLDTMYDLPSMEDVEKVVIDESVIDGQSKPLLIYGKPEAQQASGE
T1 sequence (P0A6G7 15-207): as the sequence (P0A6G7 15-207) above

CCCCCCc1c(O)c(Cl)cc2c1OC1(C2=O)C(Cl)=C(Cl)C(=O)N1C (racemic) [compound 1, 5-chloro-armeniaspirol A]
IC50 [1]: 61 ± 1 µM | Ki [2]: 36.7 µM | Ki [3]: 58.8 µM | IC50 [4]: 48.6 ± 1 µM | Ki [5]: 3.2 µM
